Experimental data reported in ChEMBL document CHEMBL6096732 (J Med Chem, 2025).

Legend:
Conditions in all cases: dose 500.0 nM, time 3.0 hrs
[1] = target: T1, Protein deacetylase HDAC6 (Homo sapiens) (UniProt Q9UBN7)
T1 sequence (whole entry): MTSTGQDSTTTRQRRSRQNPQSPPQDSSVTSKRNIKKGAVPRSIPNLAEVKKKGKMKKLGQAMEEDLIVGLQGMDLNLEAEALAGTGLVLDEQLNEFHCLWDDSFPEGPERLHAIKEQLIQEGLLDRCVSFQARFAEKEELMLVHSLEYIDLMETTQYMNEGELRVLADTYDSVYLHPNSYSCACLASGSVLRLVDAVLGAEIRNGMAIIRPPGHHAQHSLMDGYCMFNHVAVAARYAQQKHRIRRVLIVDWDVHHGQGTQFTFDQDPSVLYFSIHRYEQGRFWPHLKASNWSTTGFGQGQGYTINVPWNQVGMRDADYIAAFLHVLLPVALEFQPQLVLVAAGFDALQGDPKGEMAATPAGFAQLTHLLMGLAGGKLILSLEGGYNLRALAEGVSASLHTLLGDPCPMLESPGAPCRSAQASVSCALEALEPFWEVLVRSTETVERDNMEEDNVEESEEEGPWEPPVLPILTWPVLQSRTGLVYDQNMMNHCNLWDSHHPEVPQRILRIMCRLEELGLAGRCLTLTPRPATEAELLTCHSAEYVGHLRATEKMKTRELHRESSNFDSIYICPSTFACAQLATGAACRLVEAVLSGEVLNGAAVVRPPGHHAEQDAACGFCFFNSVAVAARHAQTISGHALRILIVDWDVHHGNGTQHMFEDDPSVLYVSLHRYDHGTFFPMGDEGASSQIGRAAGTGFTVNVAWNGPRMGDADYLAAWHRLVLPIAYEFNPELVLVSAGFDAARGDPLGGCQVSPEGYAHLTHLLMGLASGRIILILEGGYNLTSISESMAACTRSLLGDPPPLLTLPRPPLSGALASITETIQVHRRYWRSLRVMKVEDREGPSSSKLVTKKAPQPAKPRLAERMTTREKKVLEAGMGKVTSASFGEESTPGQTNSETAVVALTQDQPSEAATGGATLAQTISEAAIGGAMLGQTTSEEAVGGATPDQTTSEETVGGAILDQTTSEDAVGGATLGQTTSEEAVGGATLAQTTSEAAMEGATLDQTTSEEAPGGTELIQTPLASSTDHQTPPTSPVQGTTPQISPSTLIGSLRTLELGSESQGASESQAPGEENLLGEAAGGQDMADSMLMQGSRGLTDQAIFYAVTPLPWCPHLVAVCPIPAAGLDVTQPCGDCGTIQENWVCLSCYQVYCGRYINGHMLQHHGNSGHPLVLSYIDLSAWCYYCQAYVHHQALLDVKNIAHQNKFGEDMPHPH
Description: Inhibition of recombinant full length human HDAC6 using Boc-Lys(acetyl)-AMC as substrate at 500 nM preincubated for 1 hr followed by substrate addition and measured after 2 hrs by fluorescence based micro plate reader analysis relative to control

[2] = target: Histone deacetylase 3 (Homo sapiens, UniProt O15379);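 also: recombinant HDAC3 enzyme with Boc-Lys(acetyl)-AMC substrate, fluorescence readout, compound preincubated 1 hr before a 2 hr reaction, inhibition expressed relative to control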
Description: Inhibition of recombinant HDAC3 (unknown origin) using Boc-Lys(acetyl)-AMC as substrate at 500 nM preincubated for 1 hr followed by substrate addition and measured after 2 hrs by fluorescence based micro plate reader analysis relative to control

[3] = target: Histone deacetylase 1 (Homo sapiens, UniProt Q13547)
Chain of Histone deacetylase 1 (Q13547 whole entry): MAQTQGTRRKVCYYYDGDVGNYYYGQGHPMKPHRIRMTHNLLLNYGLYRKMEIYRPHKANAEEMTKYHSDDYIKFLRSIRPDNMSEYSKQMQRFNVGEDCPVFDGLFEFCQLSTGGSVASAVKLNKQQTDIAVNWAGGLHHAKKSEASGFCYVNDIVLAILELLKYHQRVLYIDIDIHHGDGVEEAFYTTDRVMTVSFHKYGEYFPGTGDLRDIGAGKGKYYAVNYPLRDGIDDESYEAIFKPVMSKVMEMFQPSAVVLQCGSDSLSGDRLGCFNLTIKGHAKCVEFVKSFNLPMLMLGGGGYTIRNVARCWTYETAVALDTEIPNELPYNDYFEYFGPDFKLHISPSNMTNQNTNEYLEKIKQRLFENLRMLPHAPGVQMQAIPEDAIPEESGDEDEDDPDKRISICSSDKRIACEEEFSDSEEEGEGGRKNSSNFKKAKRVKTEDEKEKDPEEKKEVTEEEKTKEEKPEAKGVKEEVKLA
Description: Inhibition of recombinant HDAC1 (unknown origin) using Boc-Lys(acetyl)-AMC as substrate at 500 nM preincubated for 1 hr followed by substrate addition and measured after 2 hrs by fluorescence based micro plate reader analysis relative to control

Chain of Histone deacetylase 3 (O15379 whole entry): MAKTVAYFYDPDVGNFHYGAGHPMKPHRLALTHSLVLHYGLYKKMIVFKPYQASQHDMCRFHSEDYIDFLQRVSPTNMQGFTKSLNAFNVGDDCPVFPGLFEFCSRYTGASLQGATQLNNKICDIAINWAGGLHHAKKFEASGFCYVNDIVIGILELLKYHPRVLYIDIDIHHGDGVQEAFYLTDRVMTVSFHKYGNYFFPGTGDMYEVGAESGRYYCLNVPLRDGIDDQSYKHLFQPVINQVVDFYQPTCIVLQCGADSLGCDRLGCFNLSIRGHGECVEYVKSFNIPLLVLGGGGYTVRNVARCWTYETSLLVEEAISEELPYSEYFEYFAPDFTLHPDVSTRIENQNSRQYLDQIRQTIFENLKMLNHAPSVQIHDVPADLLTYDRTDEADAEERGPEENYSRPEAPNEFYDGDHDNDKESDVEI

Row | inhibition [1] [%] | inhibition [2] [%] | inhibition [3] [%] | SMILES
1 | < 10 | < 10 | < 10 | CCCN(CCC)NC(=O)c1ccc(Cn2c3ccccc3c3c(C4CCN(C(=O)OC(C)(C)C)CC4)nc4ccccc4c32)cc1
2 | < 10 | 69 | 20 | CCCNNC(=O)c1ccc(Cn2c3ccccc3c3c(-c4cccc(F)c4)nc4ccccc4c32)cc1
3 | 18 | 47 | < 10 | CCCNNC(=O)c1ccc(Cn2c3ccccc3c3c(-c4cccc([N+](=O)[O-])c4)nc4ccccc4c32)cc1
4 | < 10 | < 10 | < 10 | CC(C)CCNNC(=O)c1ccc(Cn2c3ccccc3c3c(-c4ccccn4)nc4ccccc4c32)cc1
5 | 21 | 84 | 16 | CCCNNC(=O)c1ccc(Cn2c3ccccc3c3c(-c4cccnc4)nc4ccccc4c32)cc1
6 | < 10 | < 10 | < 10 | CCCCCCCCCCNNC(=O)c1ccc(Cn2c3ccccc3c3c(-c4ccccn4)nc4ccccc4c32)cc1
7 | < 10 | 91 | 39 | C/C=C/CNNC(=O)c1ccc(Cn2c3ccccc3c3c(-c4ccccn4)nc4ccccc4c32)cc1
8 | < 10 | 53 | 22 | CCCCCCCNNC(=O)c1ccc(Cn2c3ccccc3c3c(-c4ccccn4)nc4ccccc4c32)cc1
9 | < 10 | 32 | 11 | CCNNC(=O)c1ccc(Cn2c3ccccc3c3c(-c4ccccn4)nc4ccccc4c32)cc1
10 | < 10 | 82 | 20 | CCCCCNNC(=O)c1ccc(Cn2c3ccccc3c3c(-c4ccccn4)nc4ccccc4c32)cc1
11 | 26 | 40 | < 10 | CCCCCCCCNNC(=O)c1ccc(Cn2c3ccccc3c3c(-c4ccccn4)nc4ccccc4c32)cc1
12 | < 10 | 29 | < 10 | CCCCCCCCCNNC(=O)c1ccc(Cn2c3ccccc3c3c(-c4ccccn4)nc4ccccc4c32)cc1
13 | < 10 | < 10 | < 10 | CC(C)NNC(=O)c1ccc(Cn2c3ccccc3c3c(-c4ccccn4)nc4ccccc4c32)cc1

Further lines, the compound ahead of its results:

Row | SMILES | inhibition [1] [%] | inhibition [2] [%] | inhibition [3] [%]
14 | CCCNNC(=O)c1ccc(Cn2c3ccccc3c3c(C4CCN(C(=O)OC(C)(C)C)CC4)nc4ccccc4c32)cc1 | < 10 | 73 | 22
15 | CCCCNNC(=O)c1ccc(Cn2c3ccccc3c3c(-c4ccccn4)nc4ccccc4c32)cc1 | < 10 | 92 | 35
16 | CCCNNC(=O)c1ccc(Cn2c3ccccc3c3c(-c4cc(Cl)ccc4O)nc4ccccc4c32)cc1 | 30 | 47 | 31
17 | CCCNNC(=O)c1ccc(Cn2c3ccccc3c3c(-c4ccc(O)c(OC)c4)nc4ccccc4c32)cc1 | < 10 | 79 | 20
18 | CCCN(CCC)NC(=O)c1ccc(Cn2c3ccccc3c3c(-c4cccc(F)c4)nc4ccccc4c32)cc1 | < 10 | 31 | 27
19 | CCCNNC(=O)c1ccc(Cn2c3ccccc3c3c(-c4cc(OC)ccc4O)nc4ccccc4c32)cc1 | 14 | 66 | 27
20 | CCCNNC(=O)c1ccc(Cn2c3ccccc3c3c(-c4ccc(OC)cc4)nc4ccccc4c32)cc1 | < 10 | 58 | 29
21 | CCCNNC(=O)c1ccc(Cn2c3ccccc3c3c(-c4ccccc4)nc4ccccc4c32)cc1 | 24 | 57 | < 10
22 | CCCNNC(=O)c1ccc(Cn2c3ccccc3c3c(-c4ccc(C#N)cc4)nc4ccccc4c32)cc1 | < 10 | 33 | < 10
23 | CCCNNC(=O)c1ccc(Cn2c3ccccc3c3c(-c4ccncc4)nc4ccccc4c32)cc1 | 19 | 65 | 12
